SMILES strings stand for the structures.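 Cultured in 96-well plates, cells were exposed to test compound for 48 hours across five concentrations. The concentration for full growth arrest is given as TGI.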

Test systems include BT-549 breast; HT29 colon; LOX IMVI melanoma; NCI-H460 lung; OVCAR-3 ovarian; PC-3 prostate; RPMI-8226 leukemia; RXF 393 renal; UO-31 renal; SK-OV-3 ovarian.
What all share (assay): NCI anticancer screen, dose series, 48 h

For `COc1ccc(C2C(C#N)=C(S)N(C3OC(CO)C(O)C(O)C3O)C(C)=C2C(C)=O)cc1` (stereo unspecified), the TGI in the experiment with BT-549 breast, in the experiment on HT29 colon, in the experiment with LOX IMVI melanoma, in the experiment with NCI-H460 lung, in the experiment on OVCAR-3 ovarian and in the experiment with PC-3 prostate was more than 100 µM in each case. Further, the TGI in the experiment with RPMI-8226 leukemia, in the experiment with RXF 393 renal and in the experiment with UO-31 renal was more than 100 µM throughout.

Turning to `O=C(N[C@H]1CCC[C@H]1C(=O)Nc1ccc(C(F)(F)F)cc1)OCc1ccccc1`, the TGI with BT-549 breast, with HT29 colon, in the experiment with LOX IMVI melanoma, with NCI-H460 lung, with OVCAR-3 ovarian and with PC-3 prostate was more than 100 µM throughout. In addition, the TGI in the experiment on RPMI-8226 leukemia, in the experiment on RXF 393 renal, in the experiment on SK-OV-3 ovarian and in the experiment with UO-31 renal was more than 100 µM throughout.

For the molecule `O=C1c2cc3c(cc2CC1Cc1ccc2c(c1)CCC2)CCC3` (stereo unspecified), the TGI in the experiment on BT-549 breast, in the experiment with HT29 colon, in the experiment with LOX IMVI melanoma, in the experiment with NCI-H460 lung, in the experiment with OVCAR-3 ovarian and with PC-3 prostate was more than 100 µM in each case. Also, the TGI with RPMI-8226 leukemia, with RXF 393 renal, in the experiment with SK-OV-3 ovarian and with UO-31 renal was more than 100 µM each time.

Take `OC1(c2ccc(Cl)cc2)c2c(c3ccccc3c3ccccc23)C2=NCCN21` (stereo unspecified): the TGI with BT-549 breast was determined as 33.7 µM; in the experiment on HT29 colon, 35.5 µM; in the experiment on LOX IMVI melanoma, 73.8 µM; with NCI-H460 lung, 41.4 µM; in the experiment with OVCAR-3 ovarian it was 62.1 µM; in the experiment with PC-3 prostate, 49.6 µM. Also, the TGI in the experiment on RPMI-8226 leukemia is more than 100 µM; with RXF 393 renal, 24.7 µM; in the experiment on SK-OV-3 ovarian it was 31.3 µM; in the experiment with UO-31 renal, 24.6 µM.

Consider `O=c1c2cc(I)ccc2nc(SCc2nnco2)n1Cc1ccccc1`, for which the TGI in the experiment with BT-549 breast, with HT29 colon, with LOX IMVI melanoma, with NCI-H460 lung, in the experiment with OVCAR-3 ovarian and in the experiment with PC-3 prostate was more than 100 µM each time. The TGI is more than 100 µM in the experiment on RPMI-8226 leukemia, more than 100 µM with RXF 393 renal, more than 100 µM in the experiment with SK-OV-3 ovarian and 2.87 µM in the experiment on UO-31 renal.

For the molecule `CC(=O)OCC1OC(n2c(N)c(C#N)c(-c3cccc(Cl)c3)c(C#N)c2=S)C(OC(C)=O)C(OC(C)=O)C1OC(C)=O` (stereo unspecified), the TGI with BT-549 breast is 70.8 µM; in the experiment with HT29 colon, 84.5 µM; in the experiment with LOX IMVI melanoma it was 30.1 µM; in the experiment with NCI-H460 lung it was more than 100 µM; in the experiment on OVCAR-3 ovarian, 58 µM; in the experiment with PC-3 prostate, more than 100 µM. For the same molecule, the TGI is 39.7 µM in the experiment on RPMI-8226 leukemia, 22 µM in the experiment on RXF 393 renal, 57.1 µM with SK-OV-3 ovarian and more than 100 µM with UO-31 renal.

As to `CN(/N=C/c1ccc(Cl)cc1)C1=NCCCCN1`, the TGI with BT-549 breast, in the experiment with HT29 colon, in the experiment with LOX IMVI melanoma, in the experiment on NCI-H460 lung, in the experiment on OVCAR-3 ovarian and with PC-3 prostate was more than 100 µM in each case. Moreover, the TGI in the experiment with RPMI-8226 leukemia, in the experiment on SK-OV-3 ovarian and in the experiment on UO-31 renal was more than 100 µM each time.

`CC(=O)N1C(Nc2cccc3nc(C)ccc23)CCN1c1ccccc1` (stereo unspecified): the TGI in the experiment with BT-549 breast, in the experiment on HT29 colon, in the experiment on LOX IMVI melanoma, in the experiment with NCI-H460 lung, in the experiment with OVCAR-3 ovarian and in the experiment with PC-3 prostate was more than 10 µM each time. Besides, the TGI with RPMI-8226 leukemia, with RXF 393 renal, in the experiment with SK-OV-3 ovarian and with UO-31 renal was more than 10 µM each time.

For `CCn1c(=O)c2c3ccc(OC)cc3[nH]c2c2ccc(OC)cc21`, the TGI with BT-549 breast, in the experiment on HT29 colon, in the experiment with OVCAR-3 ovarian, in the experiment with PC-3 prostate, in the experiment on RXF 393 renal and in the experiment on SK-OV-3 ovarian was more than 100 µM throughout. In addition, in the experiment on UO-31 renal, the TGI is more than 100 µM.

As to `CC(=O)O[C@H]1C[C@](C)(O)[C@@]23CC([C@@H](OC(=O)C(C)(C)O)[C@@H](OC(C)=O)C2(COC(=O)c2ccccc2)[C@H]1OC(C)=O)C(C)(C)O3` (stereo partly specified), the TGI in the experiment with BT-549 breast, in the experiment on HT29 colon, with LOX IMVI melanoma, in the experiment with NCI-H460 lung, in the experiment on OVCAR-3 ovarian and in the experiment on PC-3 prostate was more than 100 µM each time. Further, the TGI with RPMI-8226 leukemia, in the experiment with RXF 393 renal, with SK-OV-3 ovarian and in the experiment with UO-31 renal was more than 100 µM each time.

Consider `CC1CCOc2ccc(cc2)C=Nc2ccc(cc2)-c2ccc(cc2)N=Cc2ccc(cc2)OCC1` (stereo unspecified), for which the TGI in the experiment on BT-549 breast, in the experiment on HT29 colon, in the experiment with LOX IMVI melanoma, in the experiment with NCI-H460 lung, in the experiment with OVCAR-3 ovarian and in the experiment with PC-3 prostate was more than 100 µM each time. The TGI in the experiment with RPMI-8226 leukemia, in the experiment on SK-OV-3 ovarian and in the experiment on UO-31 renal was more than 100 µM each time.

Turning to `CC1=CC(=O)/C(=C/n2c(=S)[nH]c3cc(C)ccc32)C(=O)O1`, the TGI in the experiment with BT-549 breast, with HT29 colon, in the experiment with LOX IMVI melanoma, in the experiment with NCI-H460 lung, with OVCAR-3 ovarian and with PC-3 prostate was more than 100 µM in each case. In addition, the TGI in the experiment on RXF 393 renal, in the experiment with SK-OV-3 ovarian and in the experiment with UO-31 renal was more than 100 µM each time.

In the case of `C[N+]1([O-])[C@H]2CC(OC(=O)[C@H](CO)c3ccccc3)C[C@H]1[C@H]1O[C@H]12` (stereo partly specified), the TGI in the experiment on BT-549 breast, in the experiment on HT29 colon, with LOX IMVI melanoma, with OVCAR-3 ovarian, with PC-3 prostate and in the experiment with RPMI-8226 leukemia was more than 100 µM in each case. Also, the TGI in the experiment with RXF 393 renal, in the experiment with SK-OV-3 ovarian and with UO-31 renal was more than 100 µM in each case.

As to `COc1cc([C@@H]2c3cc4c(cc3[C@@H](c3c(O)cc(O)c5c3O[C@H](c3ccc(O)c(O)c3)[C@H](OC(=O)c3cc(O)c(O)c(O)c3)C5)[C@H]3COC(=O)[C@H]23)OCO4)cc(OC)c1O`, the TGI with BT-549 breast was more than 100 µM; in the experiment on HT29 colon, 65.3 µM; in the experiment on LOX IMVI melanoma, more than 100 µM; in the experiment on NCI-H460 lung it was more than 100 µM; in the experiment with OVCAR-3 ovarian it was more than 100 µM; in the experiment with PC-3 prostate it was more than 100 µM. Besides, the TGI in the experiment with RPMI-8226 leukemia, with RXF 393 renal and in the experiment on SK-OV-3 ovarian was more than 100 µM throughout.

These data come from PubChem BioAssay (NCI).
